Values of other authors in patent publication US20020127714A1, “Inhibitors of alternative alleles of genes encoding products that mediate cell response to environmental changes” (Variagenics, Inc., a Delaware corporation, priority 1998, published 2002).
Where two headings read alike, the source gives them in different places. Each block holds one molecule with its values, some of them ahead of it.

How the values were obtained:
[1] = target: T1, MGMT 160 arginine allele (Homo sapiens, UniProt P16455, G160R); conditions: 160arg versus 160gly form of MGMT; also seen as reduced production of guanine from O6-benzyl[8-3H]guanine
T1 sequence (P16455 1-207 G160R): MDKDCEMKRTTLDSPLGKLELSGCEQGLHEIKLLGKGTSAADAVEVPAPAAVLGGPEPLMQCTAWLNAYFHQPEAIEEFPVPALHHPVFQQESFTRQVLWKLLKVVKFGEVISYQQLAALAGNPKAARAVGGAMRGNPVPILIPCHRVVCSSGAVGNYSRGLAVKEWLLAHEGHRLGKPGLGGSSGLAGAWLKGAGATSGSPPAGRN

[2] = system: serum asparagine; conditions: within hours of injection

half life of 5-FU (normals): 0.13 to 0.333 h
half life of 5-FU (patients homozygous for mutant DPD alleles (DPD deficiency)): > 2.5 h
Molecule: O=c1[nH]cc(F)c(=O)[nH]1 [5-FU, 5-fluorouracil]

resistance of the 160 arginine allele to inactivation, measured as an increase in the ED50 [1]: at least 20 fold
Molecule: Nc1nc(OCc2ccccc2)c2nc[nH]c2n1 [O6 benzylguanine, O6-benzylguanine]

Molecule: L-asparaginase
blood levels of asparagine [2]: undetectable levels
